The results in this text go back to ChEMBL document CHEMBL6078642, “Design, Synthesis, and Activity Evaluation of BRD4 PROTAC Based on Alkenyl Oxindole-DCAF11 Pair” (J Med Chem, 2024).

Activity calls are given as the source filed them. The calls are words filed in the database; no cut-off is given here.

One experiment concerns MDA-MB-468. The experiment is described as follows: Antiproliferative activity against human MDA-MB-468 cells assessed as reduction in cell viability incubated for 2 days by CCK8 assay. The conditions noted are these: MDA-MB-468, 48 h. Type of experiment: functional, cell-based. On the technique in general: Tetrazolium assays rely on reduction of a dye to a coloured formazan, in cell work by metabolically active cells.

A further experiment concerns MDA-MB-231. The experiment can be described thus: Antiproliferative activity against human MDA-MB-231 cells assessed as reduction in cell viability incubated for 2 days by CCK8 assay. Type of experiment: functional, cell-based. To be noted: MDA-MB-231, 48 h.
A further experiment has as its system HEK293T. The experiment is described as follows: Induction of BRD4 BD1 domain (unknown origin) degradation expressed in DCAF11 knockout HEK293T cells assessed as decrease in red fluorescence at 1 uM incubated for 12 hrs by dual fluorescence reporter cell based high content imaging analysis. To be noted: Homo sapiens.
For experiment [1], the target named is T1, DCAF11-BRD4 (Homo sapiens, UniProt O60885+Q8TEB1). The experiment can be described thus: PROTAC activity at DCAF11/BRD4 BD1 domain (unknown origin) expressed in HEK293T cells assessed as induction of BRD4 degradation at 1 uM incubated for 12 hrs by Dual fluorescence reporter cell high content imaging analysis relative to control. Type of experiment: cell-based.

The target of experiment [2] is T1, DCAF11-BRD4. The experiment can be described thus: PROTAC activity at DCAF11/BRD4 in human MDA-MB-231 cells assessed as induction of BRD4 degradation at 10 to 100 nM incubated for 1 hrs by immunoblot analysis. It counts as cell-based. The conditions noted are these: dose 10-100 nM. Background: In western blotting, separated proteins are transferred to a membrane and probed.

T1 sequence (Q8TEB1 whole entry, looked up, other chains not shown, the tested form may be a part): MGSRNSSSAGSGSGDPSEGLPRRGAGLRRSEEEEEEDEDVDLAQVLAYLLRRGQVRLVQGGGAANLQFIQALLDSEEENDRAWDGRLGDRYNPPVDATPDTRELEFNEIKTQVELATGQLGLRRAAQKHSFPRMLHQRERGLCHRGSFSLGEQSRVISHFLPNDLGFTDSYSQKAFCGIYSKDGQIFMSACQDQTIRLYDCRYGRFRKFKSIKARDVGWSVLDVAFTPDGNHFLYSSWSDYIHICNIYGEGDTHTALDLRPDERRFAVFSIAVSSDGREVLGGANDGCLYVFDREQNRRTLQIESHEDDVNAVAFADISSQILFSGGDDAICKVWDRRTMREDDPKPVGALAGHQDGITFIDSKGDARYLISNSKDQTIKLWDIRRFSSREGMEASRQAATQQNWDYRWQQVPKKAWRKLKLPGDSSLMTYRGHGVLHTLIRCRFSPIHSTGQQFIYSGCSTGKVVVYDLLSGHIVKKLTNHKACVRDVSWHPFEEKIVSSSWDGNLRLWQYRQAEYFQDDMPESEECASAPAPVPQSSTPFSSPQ

Take `Cc1ncsc1-c1ccc(CNC(=O)[C@@H]2C[C@@H](O)CN2C(=O)[C@@H](NC(=O)COCCOCCOCCNC(=O)C[C@@H]2N=C(c3ccc(Cl)cc3)c3c(sc(C)c3C)-n3c(C)nnc32)C(C)(C)C)cc1`: the IC50 (usually the point on the concentration scale where inhibition reaches its midpoint) in the experiment with MDA-MB-468 was 1.2 µM; in the experiment on MDA-MB-231 it was 0.02 µM.

On to `Cc1sc2c(c1C)C(c1ccc(Cl)cc1)=N[C@@H](CC(=O)NCCCOCCOCCOCCCNC(=O)COc1ccc(Br)cc1/C=C1\C(=O)Nc3cc(C(F)(F)F)ccc31)c1nnc(C)n1-2`, for which the outcome in the experiment with HEK293T was inactive.

In the case of `Cc1sc2c(c1C)C(c1ccc(Cl)cc1)=N[C@@H](CC(=O)NCCCOCCOCCOCCCNC(=O)c1ccsc1/C=C1/C(=O)Nc3cc(C(F)(F)F)ccc31)c1nnc(C)n1-2`, the outcome in the experiment on HEK293T was inactive.

With `Cc1sc2c(c1C)C(c1ccc(Cl)cc1)=N[C@@H](CC(=O)NCCCOc1c(Br)cc(Br)c(/C=C3/C(=O)Nc4cc(C(F)(F)F)ccc43)c1Br)c1nnc(C)n1-2`, in the experiment on HEK293T, the outcome was inactive.

`Cc1sc2c(c1C)C(c1ccc(Cl)cc1)=N[C@@H](CC(=O)NCCCOc1ccc(Br)cc1/C=C1/C(=O)Nc3cc(C(F)(F)F)ccc31)c1nnc(C)n1-2`: the Activity at DCAF11-BRD4 [1] is > 35%. In addition, in the experiment with HEK293T, the outcome was inactive.

For `Cc1sc2c(c1C)C(c1ccc(Cl)cc1)=N[C@@H](CC(=O)NCCCOc1cccc(/C=C3/C(=O)Nc4cc(C(F)(F)F)ccc43)c1)c1nnc(C)n1-2`, at DCAF11-BRD4 [1], the Activity is > 35%. Also, the result in the experiment on HEK293T was inactive.

Take `Cc1ccc(OCC(=O)NCCCOCCOCCOCCCNC(=O)C[C@@H]2N=C(c3ccc(Cl)cc3)c3c(sc(C)c3C)-n3c(C)nnc32)c(/C=C2\C(=O)Nc3ccc(Br)cc32)c1` (stereo in doubt): the Activity at DCAF11-BRD4 [1] was > 35%. In the experiment with HEK293T, the outcome was inactive.

With `Cc1ccc(OCC(=O)NCCCOCCOCCOCCCNC(=O)C[C@@H]2N=C(c3ccc(Cl)cc3)c3c(sc(C)c3C)-n3c(C)nnc32)c(/C=C2\C(=O)Nc3ccc(Cl)cc32)c1` (stereo in doubt), the Activity at DCAF11-BRD4 [1] is > 35%. In addition, the outcome in the experiment with HEK293T was inactive. Besides, the outcome at DCAF11-BRD4 [2] was Active.

Take `Cc1ccc(OCC(=O)NCCCOCCOCCOCCCNC(=O)C[C@@H]2N=C(c3ccc(Cl)cc3)c3c(sc(C)c3C)-n3c(C)nnc32)c(/C=C2\C(=O)Nc3ccc(F)cc32)c1` (stereo in doubt): the Activity at DCAF11-BRD4 [1] is > 35%. The outcome in the experiment with HEK293T was inactive. Also, the outcome on DCAF11-BRD4 [2] was Active.

With `Cc1ccc(OCC(=O)NCCOCCOCCOCCOCCNC(=O)C[C@@H]2N=C(c3ccc(Cl)cc3)c3c(sc(C)c3C)-n3c(C)nnc32)c(/C=C2/C(=O)Nc3cc(C(F)(F)F)ccc32)c1` (stereo in doubt), the Activity on DCAF11-BRD4 [1] is > 35%. Moreover, the result with HEK293T was inactive.

Consider `Cc1sc2c(c1C)C(c1ccc(Cl)cc1)=N[C@@H](CC(=O)NCCCOCCOCCOCCCNC(=O)COc1ccc(/C=C3/C(=O)Nc4cc(C(F)(F)F)ccc43)nc1)c1nnc(C)n1-2` (stereo in doubt), for which the Activity on DCAF11-BRD4 [1] was > 35%. The result in the experiment with HEK293T was inactive. Besides, at DCAF11-BRD4 [2], the result was Active.

Turning to `Cc1sc2c(c1C)C(c1ccc(Cl)cc1)=N[C@@H](CC(=O)NCCCOCCOCCOCCCNC(=O)COc1ccc(/C=C3/C(=O)Nc4ccc(Br)cc43)cc1)c1nnc(C)n1-2` (stereo in doubt), on DCAF11-BRD4 [1], the Activity is > 35%. In addition, in the experiment on HEK293T, the outcome was inactive. Moreover, the result at DCAF11-BRD4 [2] was Active.

As for `Cc1sc2c(c1C)C(c1ccc(Cl)cc1)=N[C@@H](CC(=O)NCCCOCCOCCOCCCNC(=O)COc1ccc(/C=C3/C(=O)Nc4ccc(Cl)cc43)cc1)c1nnc(C)n1-2` (stereo in doubt), the Activity on DCAF11-BRD4 [1] is > 35%.

On to `Cc1sc2c(c1C)C(c1ccc(Cl)cc1)=N[C@@H](CC(=O)NCCCOCCOCCOCCCNC(=O)COc1ccc(/C=C3/C(=O)Nc4ccc(F)cc43)cc1)c1nnc(C)n1-2` (stereo in doubt), for which the Activity at DCAF11-BRD4 [1] is > 35%. The result in the experiment with HEK293T was inactive.

As for `Cc1sc2c(c1C)C(c1ccc(Cl)cc1)=N[C@@H](CC(=O)NCCCOc1c(Br)cc(/C=C3/C(=O)Nc4cc(C(F)(F)F)ccc43)cc1Br)c1nnc(C)n1-2` (stereo in doubt), at DCAF11-BRD4 [1], the Activity was > 35%. Also, in the experiment with HEK293T, the outcome was inactive.
